This note sets out measurements from patent publication US7091222B2, “Imidazole derivatives” (Hoffmann-La Roche Inc., priority 2003, dated 2006).

Usually Ki stands for a measure of affinity in units of concentration, obtained from inhibition or displacement.

The target in the experiment is T1, human mGlu 5a receptor (Homo sapiens, UniProt P41594).
T1 construct: expressed in transfected cells; host or cells: EBNA cells (transient transfection); membrane homogenates
The experiment can be described thus: [3H]MPEP competition binding on membranes of EBNA cells transfected with human mGlu 5a receptor. The note with it: competition with [3H]MPEP (2 nM), 1 h at 4° C., membranes of transiently transfected EBNA cells; Ki=IC50/[1+L/Kd]. How it is done: For binding experiments, cDNA encoding human mGlu 5a receptor was transiently transfected into EBNA cells using a procedure described by Schlaeger and Christensen [Cytotechnology 15:1–13 (1998)]. Cell membrane homogenates were stored at −80° C. until the day of assay where upon they were thawed and resuspended and polytronised in 15 mM Tris-HCl, 120 mM NaCl, 100 mM KCl, 25 mM CaCl2, 25 mM MgCl2 binding buffer at pH 7.4 to a final assay concentration of 20 μg protein/well.
Saturation isotherms were determined by addition of twelve [^3H]MPEP concentrations (0.04–100 nM) to these membranes (in a total volume of 200 μl) for 1 h at 4° C. Competition experiments were performed with a fixed concentration of [^3H]MPEP (2 nM) and IC50 values of test compounds evaluated using 11 concentrations (0.3–10,000 nM). Incubations were performed for 1 h at 4° C.
At the end of the incubation, membranes were filtered onto unifilter (96-well white microplate with bonded GF/C filter preincubated 1 h in 0.1% PEI in wash buffer, Packard BioScience, Meriden, Conn.) with a Filtermate 96 harvester (Packard BioScience) and washed 3 times with cold 50 mM Tris-HCl, pH 7.4 buffer. Nonspecific binding was measured in the presence of 10 μM MPEP. The radioactivity on the filter was counted (3 min) on a Packard Top-count microplate scintillation counter with quenching correction after addition of 45 μl of microscint 40 (Canberra Packard S. A., Zürich, Switzerland) and shaking for 20 min.
The inhibition (antagonists) curves were fitted with a four parameter logistic equation giving IC50, and Hill coefficient using an iterative non linear curve fitting software (Xcel fit).
For binding experiments the Ki values of the compounds tested are given. the Ki value is defined by the following formula: Ki=IC50/[1+L /Kd] in which the IC50 values are those concentrations of the compounds tested which cause 50% inhibition of the competing radioligand ([^3H]MPEP). L is the concentraion of radioligand used in the binding experiment and the Kd value of the radioligand is empirically determined for each batch of membranes prepared.

T1 sequence (P41594 21-1180 isoform P41594-2 limits assumed): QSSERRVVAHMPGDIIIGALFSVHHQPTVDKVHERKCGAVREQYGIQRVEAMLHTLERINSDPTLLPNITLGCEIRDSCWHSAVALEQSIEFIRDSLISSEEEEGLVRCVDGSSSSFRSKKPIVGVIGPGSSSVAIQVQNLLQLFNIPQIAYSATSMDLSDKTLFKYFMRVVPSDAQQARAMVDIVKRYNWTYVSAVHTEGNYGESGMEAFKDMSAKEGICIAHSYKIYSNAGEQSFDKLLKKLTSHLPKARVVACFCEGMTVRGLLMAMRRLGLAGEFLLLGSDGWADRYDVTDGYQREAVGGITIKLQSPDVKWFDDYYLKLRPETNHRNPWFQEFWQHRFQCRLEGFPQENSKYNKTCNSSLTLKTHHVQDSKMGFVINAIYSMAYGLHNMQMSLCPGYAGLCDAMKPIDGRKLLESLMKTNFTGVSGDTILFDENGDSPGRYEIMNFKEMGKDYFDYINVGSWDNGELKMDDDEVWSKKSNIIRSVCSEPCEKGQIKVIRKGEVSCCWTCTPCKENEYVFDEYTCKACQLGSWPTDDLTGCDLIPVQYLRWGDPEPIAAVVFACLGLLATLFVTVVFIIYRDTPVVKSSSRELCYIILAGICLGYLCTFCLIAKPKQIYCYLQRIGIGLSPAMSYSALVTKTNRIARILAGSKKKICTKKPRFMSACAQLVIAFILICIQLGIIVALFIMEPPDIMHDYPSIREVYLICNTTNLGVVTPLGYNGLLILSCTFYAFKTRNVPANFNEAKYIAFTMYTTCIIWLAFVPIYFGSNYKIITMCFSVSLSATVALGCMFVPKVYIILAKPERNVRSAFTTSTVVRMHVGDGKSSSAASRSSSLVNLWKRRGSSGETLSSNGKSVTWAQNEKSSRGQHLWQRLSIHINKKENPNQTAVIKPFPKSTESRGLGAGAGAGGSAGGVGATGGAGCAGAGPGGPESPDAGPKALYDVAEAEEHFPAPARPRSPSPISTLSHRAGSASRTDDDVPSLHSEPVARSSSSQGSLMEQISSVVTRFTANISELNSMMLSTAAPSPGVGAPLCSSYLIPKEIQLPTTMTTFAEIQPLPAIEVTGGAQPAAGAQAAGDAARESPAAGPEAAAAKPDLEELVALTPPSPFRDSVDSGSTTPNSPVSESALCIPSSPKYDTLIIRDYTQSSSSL

Regarding `Cc1cc(C#Cc2cn(C(C)C)c(C)n2)ccn1` [Example 2, 4-(1-Isopropyl-2-methyl-1H-imidazol-4-ylethynyl)-2-methyl-pyridine], the Ki amounted to 68 nM. As for `Cc1cc(C#Cc2cn(CC3CC3)c(C)n2)ccn1` [Example 4, 4-(1-Cyclopropylmethyl-2-methyl-1H-imidazol-4-ylethynyl)-2-methyl-pyridine], the Ki was determined as 38 nM. Turning to `Cc1cc(C#Cc2cn(CC#N)c(C)n2)ccn1` [Example 6, [2-Methyl-4-(2-methyl-pyridin-4-ylethynyl)-imidazol-1-yl]-acetonitrile], the Ki is 33 nM. As for `COCCn1cc(C#Cc2ccnc(C)c2)nc1C` [Example 7, 4-[1-(2-Methoxy-ethyl)-2-methyl-1H-imidazol-4-ylethynyl]-2-methyl-pyridine], the Ki was 122 nM. For `Cc1nc(C#Cc2ccnc(Cl)c2)cn1CC(C)C` [Example 8, 2-Chloro-4-(1-isobutyl-2-methyl-1H-imidazol-4-ylethynyl)-pyridine], the Ki was 191 nM. For `Cc1nc(C#Cc2ccnc(Cl)c2)cn1C` [Example 12, 2-Chloro-4-(1,2-dimethyl-1H-imidazol-4-ylethynyl)-pyridine], the inhibition constant (Ki) stood at 49 nM. Turning to `Cc1cc(C#Cc2cn(C)c(C3CC3)n2)ccn1` [Example 13, 4-(2-Cyclopropyl-1-methyl-1H-imidazol-4-ylethynyl)-2-methyl-pyridine], the inhibition constant Ki worked out at 28 nM. With `Cc1cc(C#Cc2cn(CC(F)(F)F)c(C)n2)ccn1` [Example 21, 2-Methyl-4-[2-methyl-1-(2,2,2-trifluoro-ethyl)-1H-imidazol-4-ylethynyl]-pyridine], the Ki was 54 nM.

Consider `Cc1nc(C#Cc2ccnc(Cl)c2)cn1CC(F)(F)F` [Example 22, 2-Chloro-4-[2-methyl-1-(2,2,2-trifluoro-ethyl)-1H-imidazol-4-ylethynyl]-pyridine], for which the Ki stood at 95 nM.
